Here are results for three compounds from patent US9796725B2, “Pyrazolopyrimidinyl inhibitors of ubiquitin-activating enzyme” (Millennium Pharmaceuticals, Inc., priority 2012, dated 2017).

In assay [1] the target is recombinant human UAE (Homo sapiens (Human), UniProt P22314). In words: Ubiquitin Activating Enzyme (UAE) HTRF Assay.
Experimental: After incubation for 120 minutes, quantification of the FRET is performed on the Pherostar (BMG).
For compounds whose values are marked with an asterisk (*), mouse UAE was used. For all other compounds, human UAE was used.
Assay [2] concerns mouse acute myeloid leukemia (AML model). The note with it: cited from earlier work.

The structures appear in SMILES notation.

Sequence of recombinant human UAE (P22314 whole entry): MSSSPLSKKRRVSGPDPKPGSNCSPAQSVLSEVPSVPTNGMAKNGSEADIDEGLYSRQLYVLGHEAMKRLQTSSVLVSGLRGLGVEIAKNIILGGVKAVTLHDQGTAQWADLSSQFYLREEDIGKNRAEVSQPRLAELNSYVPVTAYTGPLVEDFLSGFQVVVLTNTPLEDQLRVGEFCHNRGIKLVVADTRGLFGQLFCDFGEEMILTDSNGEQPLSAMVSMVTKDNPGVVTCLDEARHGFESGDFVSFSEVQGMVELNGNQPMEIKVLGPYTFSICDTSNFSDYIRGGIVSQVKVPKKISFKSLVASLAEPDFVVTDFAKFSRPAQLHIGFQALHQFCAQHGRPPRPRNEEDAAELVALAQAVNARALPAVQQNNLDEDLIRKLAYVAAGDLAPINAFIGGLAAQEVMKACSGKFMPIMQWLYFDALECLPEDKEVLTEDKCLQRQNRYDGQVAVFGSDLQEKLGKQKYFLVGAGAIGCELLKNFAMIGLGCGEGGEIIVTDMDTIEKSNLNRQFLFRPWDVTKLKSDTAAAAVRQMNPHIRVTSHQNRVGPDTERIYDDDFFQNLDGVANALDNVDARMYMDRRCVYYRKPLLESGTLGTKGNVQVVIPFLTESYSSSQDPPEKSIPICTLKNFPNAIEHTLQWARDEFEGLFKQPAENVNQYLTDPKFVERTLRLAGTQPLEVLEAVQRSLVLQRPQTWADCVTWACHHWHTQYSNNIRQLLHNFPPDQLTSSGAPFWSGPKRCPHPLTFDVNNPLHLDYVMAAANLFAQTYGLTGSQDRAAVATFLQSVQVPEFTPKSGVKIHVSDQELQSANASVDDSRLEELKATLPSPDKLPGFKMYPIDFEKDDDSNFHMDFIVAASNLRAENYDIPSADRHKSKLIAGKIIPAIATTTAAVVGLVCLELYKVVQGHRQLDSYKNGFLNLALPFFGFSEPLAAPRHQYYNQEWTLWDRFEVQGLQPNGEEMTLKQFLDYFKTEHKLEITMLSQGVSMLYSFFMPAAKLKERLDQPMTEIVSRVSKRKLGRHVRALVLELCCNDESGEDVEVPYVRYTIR

By IC50 is commonly meant the concentration needed to halve the response being measured. As to `COc1ccc(C(C)(C)C)cc1-c1cc2nccc(N[C@@H]3C[C@H](COS(N)(=O)=O)[C@@H](O)[C@H]3O)n2n1` (racemic) [Compound I-063, (rac)-((1R,2R,3S,4R)-4-{[2-(5-tert-butyl-2-methoxyphenyl)pyrazolo[1,5-a]pyrimidin-7-yl]amino}-2,3-dihydroxycyclopentyl)methyl rel-sulfamate], the IC50 in assay [1] was below 0.01 µM.
On the same count and under the same terms, in the case of `NS(=O)(=O)OC[C@H]1C[C@@H](Nc2ccnc3cc(-c4cccc5cc(C(=O)O)ccc45)nn23)[C@H](O)[C@@H]1O` (relative stereo) [Compound I-099, (rac)-rel-5-[7-({(1R,2S,3R,4R)-2,3-dihydroxy-4-[(sulfamoyloxy)methyl]cyclopentyl}amino)pyrazolo[1,5-a]pyrimidin-2-y1]-2-naphthoic acid] it was below 0.01 µM.
For `O=C1NN(c2ccc(F)c(Cl)c2)C(=O)/C1=C\c1ccc([N+](=O)[O-])o1` [PYZD-4409], the anti-tumor activity result in assay [2] is recorded as “demonstrated anti-tumor activity”.
